Measured values: patent US9409857B2 (SHANGHAI RIGHTHAND PHARMTECH. CO., LTD., priority 2012, dated 2016)
≈ marks a conversion by molar mass, not a printed value. Where “and” joins values, the source holds several entries; their conditions need not be identical. Equal values may be shown once. Read-outs that look alike come from different tables or passages of the source.

Columns and labels:
physchem = settings: thermodynamic from solid
[1] = pH 7
[2] = Determination of stability under accelerated testing condition (HPLC total impurities); format: physicochemical; settings: (40±2)°C, relative humidity (75±5)%, Batch 1-3 on separate table lines
Experimental: Conditions for chromatogram: octadecyl silane chemically bonded silica was used as a filler; a mixed solution wherein methanol-acetonitrile-phosphate buffer (10 mM/L, pH adjusted to 2.7 with phosphoric acid)=40:20:40 was used as mobile phase; column temperature was 40° C.; detecting wavelength was 220 nm. The purity of each of the products in the above described Example was determined using internal standard method. […] The stability of each of the batches was studied via High Performance Liquid Chromatography (HPLC) and the content percentage of the total related substances (total impurities) was determined in addition to the peaks of Agomelatine and acid radicals.

[3] = Determination of water solubility by external standard method

solubility (physchem; pH 7, aqueous buffer)	solubility (physchem; simulated gastric fluid)	solubility (physchem; water)	Agomelatine content (solubility) [1]	total impurities % (total related substances) ([2]; time 0 month)	total impurities % (total related substances) ([2]; time 1 month)	total impurities % (total related substances) ([2]; time 2 months)	total impurities % (total related substances) ([2]; time 3 months)	total impurities % (total related substances) ([2]; time 6 months)	Compound	Agomelatine content (solubility) ([3]; pH = 7.0 buffer solution)	Agomelatine content (solubility) ([3]; pury water)
260 µg/mL (≈ 1070 µM)	290 µg/mL (≈ 1190 µM)	270 µg/mL (≈ 1110 µM)	–	–	–	–	–	–	COc1ccc2cccc(CCNC(C)=O)c2c1 [Agomelatine crystallographic form II, N-[2-(7-methoxyl-1-naphthyl)ethyl]acetamide]	–	–
–	–	–	320 µg/mL	0.21% and 0.22% and 0.24%	0.22% and 0.24%	0.22% and 0.23% and 0.25%	0.23% and 0.25%	0.23% and 0.24% and 0.26%	COc1ccc2cccc(CCNC(C)=O)c2c1.CS(=O)(=O)O [Agomelatine methanesulfonic acid complex]	–	–
–	–	–	–	0.11% and 0.12% and 0.14%	0.12% and 0.14%	0.12% and 0.14% and 0.16%	0.14% and 0.16%	0.14% and 0.15% and 0.17%	Agomelatine benzenesulfonic acid complex	–	–

Compound	solubility (physchem; pH 7, aqueous buffer)	solubility (physchem; simulated gastric fluid)	solubility (physchem; water)	Agomelatine content (solubility) [1]	total impurities % (total related substances) ([2]; time 0 month)	total impurities % (total related substances) ([2]; time 1 month)	total impurities % (total related substances) ([2]; time 2 months)	total impurities % (total related substances) ([2]; time 3 months)	total impurities % (total related substances) ([2]; time 6 months)	Agomelatine content (solubility) ([3]; pH = 7.0 buffer solution)	Agomelatine content (solubility) ([3]; pury water)
Agomelatine sulfuric acid complex	–	–	–	–	0.11% and 0.12% and 0.14%	0.12% and 0.14%	0.12% and 0.13% and 0.15%	0.13% and 0.15%	0.13% and 0.14% and 0.16%	330 µg/mL	340 µg/mL
